Source: ChEMBL document CHEMBL1201862, “PubChem BioAssay data set” (2004)
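Each compound was tested at five concentrations against cells in 96-well plates for 48 hours. Here, GI50 denotes the concentration required for 50% inhibition of growth.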 The source made the active and inactive calls. Cut-off read from the data, not from the text of the source: active = GI50 up to about 1.1 µM and inactive = higher.

Tests used:
Experiment in all cases: DTP human tumour cell line panel, 48 h
[1] = tested on: A549
[2] = tested on: BT-549
[3] = tested on: CCRF-CEM
[4] = tested on: HT-29
[5] = tested on: K562
[6] = tested on: LOX IMVI
[7] = tested on: MDA-MB-231
[8] = tested on: MDA-N
[9] = tested on: OVCAR-3
[10] = tested on: OVCAR-4
[11] = tested on: OVCAR-5
[12] = tested on: RPMI-8226
[13] = tested on: SK-MEL-28
[14] = tested on: SK-MEL-5
[15] = tested on: SK-OV-3
[16] = tested on: SNB-75
[17] = tested on: U-251
[18] = tested on: UO-31
[19] = tested on: SR

Measured: GI50

CC[C@@H]1CC[C@@H]2[C@H](CC[C@]3(C)[C@@H](O)CC[C@@H]23)[C@H]1C(=O)O
inactive: [1] > 100 µM | [2] > 100 µM | [3] > 100 µM | [4] > 100 µM | [5] > 100 µM | [6] > 100 µM | [7] > 100 µM | [8] > 100 µM | [9] > 100 µM | [10] > 100 µM | [11] > 100 µM | [12] > 100 µM | [13] > 100 µM | [14] > 100 µM | [15] > 100 µM | [16] 18.8 µM | [17] > 100 µM | [18] > 100 µM

C#CC(O)/C=C/CCCCCCC#CC/C=C\CC#CCCCCCC/C=C/C(O)C#C (configuration not stated)
active: [3] 0.255 µM | [6] 0.0104 µM | [18] 0.264 µM
inactive: [1] 2.59 µM | [2] 2.86 µM | [4] 2.06 µM | [5] 2.05 µM | [7] 2.99 µM | [8] 2.24 µM | [9] 2.7 µM | [10] 2.57 µM | [11] 2.48 µM | [13] 1.77 µM | [14] 1.44 µM | [15] 18 µM | [16] 7.19 µM | [19] 2.54 µM | [17] 12.4 µM

O=C1CSC(c2ccccc2O)N1c1ccc(Oc2ccc(Cl)cc2)c(Cl)c1 (configuration not stated)
inactive: [1] 18.4 µM | [2] 13.1 µM | [3] 17.6 µM | [4] 19.7 µM | [5] 29.9 µM | [6] 16.6 µM | [7] 16.9 µM | [9] 18.6 µM | [10] 20.7 µM | [11] 21.6 µM | [12] 19.8 µM | [13] 19.5 µM | [14] 17.2 µM | [15] 21 µM | [16] 17.6 µM | [19] 14.3 µM | [17] 17.3 µM | [18] 5.94 µM

N=C(N)N/N=C/c1c(-c2ccc(Cl)c(Cl)c2Cl)nc2sccn12
inactive: [1] 1.53 µM | [2] 1.56 µM | [4] 1.64 µM | [6] 1.64 µM | [7] 1.21 µM | [8] 1.59 µM | [9] 1.57 µM | [10] 2.1 µM | [11] 1.49 µM | [13] 1.73 µM | [14] 1.74 µM | [15] 1.91 µM | [16] 1.49 µM | [17] 1.2 µM | [18] 1.46 µM

O=C1CCC2(c3ccccc3)Nc3ccncc3N12 (configuration not stated)
inactive: [1] > 10 µM | [2] > 10 µM | [3] > 10 µM | [4] > 10 µM | [5] > 10 µM | [6] > 10 µM | [7] > 10 µM | [8] > 10 µM | [9] > 10 µM | [10] > 10 µM | [11] > 10 µM | [15] 3.49 µM | [16] > 10 µM | [19] > 10 µM | [17] > 10 µM | [18] > 10 µM

Cc1ccsc1C(=O)C(CC(=O)c1cccs1)c1ccsc1 (configuration not stated)
inactive: [1] > 100 µM | [2] 66.5 µM | [3] > 100 µM | [4] 93.1 µM | [5] > 100 µM | [7] 77.6 µM | [8] 64.6 µM | [9] > 100 µM | [10] > 100 µM | [11] > 100 µM | [13] > 100 µM | [14] 28.2 µM | [15] > 100 µM | [16] > 100 µM | [19] 62.8 µM | [17] > 100 µM | [18] 54.1 µM
